The source of these data is ChEMBL document CHEMBL1201862, “PubChem BioAssay data set” (2004).

The target of assay [1] is T1, Apoptotic protease-activating factor 1 (Homo sapiens, UniProt O14727).
T1 sequence (O14727 whole entry): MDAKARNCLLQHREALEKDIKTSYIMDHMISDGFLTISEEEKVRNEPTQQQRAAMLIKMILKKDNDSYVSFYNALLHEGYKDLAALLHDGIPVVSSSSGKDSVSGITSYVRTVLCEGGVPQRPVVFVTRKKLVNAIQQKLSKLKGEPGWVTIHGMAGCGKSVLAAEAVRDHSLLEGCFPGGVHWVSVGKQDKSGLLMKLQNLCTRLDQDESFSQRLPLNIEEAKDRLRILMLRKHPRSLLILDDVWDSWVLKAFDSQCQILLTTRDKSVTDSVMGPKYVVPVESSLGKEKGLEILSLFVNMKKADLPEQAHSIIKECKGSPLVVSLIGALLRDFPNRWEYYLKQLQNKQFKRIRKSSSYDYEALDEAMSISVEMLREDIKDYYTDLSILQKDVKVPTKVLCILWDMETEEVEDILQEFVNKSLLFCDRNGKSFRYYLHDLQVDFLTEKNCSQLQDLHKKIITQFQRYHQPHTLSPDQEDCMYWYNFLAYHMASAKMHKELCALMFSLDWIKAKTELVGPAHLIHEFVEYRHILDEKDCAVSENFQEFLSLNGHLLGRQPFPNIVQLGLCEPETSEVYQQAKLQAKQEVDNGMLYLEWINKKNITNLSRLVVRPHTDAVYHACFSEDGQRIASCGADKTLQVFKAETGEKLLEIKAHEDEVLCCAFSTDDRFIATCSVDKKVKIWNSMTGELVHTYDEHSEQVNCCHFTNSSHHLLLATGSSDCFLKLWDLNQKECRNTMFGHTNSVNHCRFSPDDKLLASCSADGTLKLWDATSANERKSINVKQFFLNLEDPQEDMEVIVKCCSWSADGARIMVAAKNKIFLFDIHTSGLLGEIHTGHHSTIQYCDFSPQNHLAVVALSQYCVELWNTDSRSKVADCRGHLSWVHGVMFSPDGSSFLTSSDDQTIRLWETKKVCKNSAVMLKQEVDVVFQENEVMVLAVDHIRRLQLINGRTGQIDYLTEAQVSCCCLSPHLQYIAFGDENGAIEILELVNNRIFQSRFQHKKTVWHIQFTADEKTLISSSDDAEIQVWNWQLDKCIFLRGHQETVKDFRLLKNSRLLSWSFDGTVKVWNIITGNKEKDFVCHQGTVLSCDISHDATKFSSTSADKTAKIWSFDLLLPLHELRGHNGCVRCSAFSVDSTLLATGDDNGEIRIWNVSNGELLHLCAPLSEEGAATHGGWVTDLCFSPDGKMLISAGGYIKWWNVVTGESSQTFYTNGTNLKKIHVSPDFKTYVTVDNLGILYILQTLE
Type of assay: functional.

The target of the next assay is T2, Cytochrome P450 1A2 (Homo sapiens, UniProt P05177).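 Note: PubChem cytochrome P450 panel assay, CYP1A2 panel member.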
T2 sequence (P05177 whole entry): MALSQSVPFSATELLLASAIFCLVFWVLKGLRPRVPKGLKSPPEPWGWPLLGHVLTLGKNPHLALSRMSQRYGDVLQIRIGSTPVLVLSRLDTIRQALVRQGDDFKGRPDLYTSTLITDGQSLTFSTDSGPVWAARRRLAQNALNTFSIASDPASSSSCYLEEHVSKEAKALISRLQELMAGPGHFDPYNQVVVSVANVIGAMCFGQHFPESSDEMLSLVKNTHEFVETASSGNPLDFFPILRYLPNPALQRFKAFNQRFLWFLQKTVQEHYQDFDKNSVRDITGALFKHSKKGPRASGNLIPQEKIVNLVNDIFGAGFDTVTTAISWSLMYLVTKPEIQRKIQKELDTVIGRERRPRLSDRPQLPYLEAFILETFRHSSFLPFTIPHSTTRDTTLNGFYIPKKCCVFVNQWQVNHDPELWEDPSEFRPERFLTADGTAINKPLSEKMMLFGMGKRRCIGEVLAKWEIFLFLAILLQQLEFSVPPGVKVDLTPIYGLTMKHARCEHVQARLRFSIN

For assay [2], the target named is T3, Cytochrome P450 3A4 (Homo sapiens, UniProt P08684).
Another assay addresses Estrogen receptor beta (Homo sapiens, UniProt Q92731).
Assay [3] is described as follows: Luminescence Cell-Based Dose Response HTS to Identify Activators of Luciferase Translation or Activity in H4 […] Cells. [Related pubchem assays: 1829 (Project Summary), 1814 (Primary HTS)]. Format: functional.
For another assay, the system named is H4. Nature of the assay: Luminescence Cell-Based Dose Response HTS to Identify Activators of 5'UTR Stem-Loop Driven Prion Protein mRNA Translation in H4 Neuroglioblastoma Cells. [Related pubchem assays: 1829 (Project Summary), 1814 (Primary HTS)]. Format: functional. To be noted: Homo sapiens.
In assay [4] the target is Induced myeloid leukemia cell differentiation protein Mcl-1 (Homo sapiens, UniProt Q07820). Format: functional.
A short description of assay [5]: Luminescence Cell-Based Dose Confirmation HTS to Identify Activators of 5'UTR Stem-Loop Driven Alpha-Synuclein mRNA Translation in H4 Neuroglioblastoma Cells. [Related pubchem assays: 1829 (Project Summary), 1814 (Primary HTS)]. Format: functional.
Assay [6] can be described thus: inhibitors of intracellular T. cruzi replication, confirmation, NIH3T3 host cells, beta-gal luminescence (AID 2044).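 Note: intracellular parasites grown in NIH/3T3 mouse fibroblasts as host cells; luminescent beta-galactosidase reporter signal from transgenic T. cruzi replicating inside host cells; inhibitors lower the luminescence signal.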 Format: functional, cell-based.
Assay [7] is described as follows: cytotoxicity toward NIH3T3 fibroblasts, dose response, counter-screen, cell-based, ATP luminescence, mouse fibroblasts (AID 2010).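 Note: cells exposed to compound for about 90 hours before reading.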 Format: functional.
The target of assay [8] is Heat shock protein HSP 90-alpha (Homo sapiens, UniProt P07900). Format: functional, organism-based.
Assay [9] addresses T3, Cytochrome P450 3A4. To be noted: Potency.
Assay [10] has as its target FAD-linked sulfhydryl oxidase ALR (Homo sapiens, UniProt P55789). Nature of the assay: inhibitors of human ALR sulfhydryl oxidase, dose response, biochemical, H2O2 detection, luminescence, cherry-pick (AID 493248).
The target of assay [11] is T4, Histone-lysine N-methyltransferase NSD2 (Homo sapiens, UniProt O96028).
T4 sequence (O96028 whole entry): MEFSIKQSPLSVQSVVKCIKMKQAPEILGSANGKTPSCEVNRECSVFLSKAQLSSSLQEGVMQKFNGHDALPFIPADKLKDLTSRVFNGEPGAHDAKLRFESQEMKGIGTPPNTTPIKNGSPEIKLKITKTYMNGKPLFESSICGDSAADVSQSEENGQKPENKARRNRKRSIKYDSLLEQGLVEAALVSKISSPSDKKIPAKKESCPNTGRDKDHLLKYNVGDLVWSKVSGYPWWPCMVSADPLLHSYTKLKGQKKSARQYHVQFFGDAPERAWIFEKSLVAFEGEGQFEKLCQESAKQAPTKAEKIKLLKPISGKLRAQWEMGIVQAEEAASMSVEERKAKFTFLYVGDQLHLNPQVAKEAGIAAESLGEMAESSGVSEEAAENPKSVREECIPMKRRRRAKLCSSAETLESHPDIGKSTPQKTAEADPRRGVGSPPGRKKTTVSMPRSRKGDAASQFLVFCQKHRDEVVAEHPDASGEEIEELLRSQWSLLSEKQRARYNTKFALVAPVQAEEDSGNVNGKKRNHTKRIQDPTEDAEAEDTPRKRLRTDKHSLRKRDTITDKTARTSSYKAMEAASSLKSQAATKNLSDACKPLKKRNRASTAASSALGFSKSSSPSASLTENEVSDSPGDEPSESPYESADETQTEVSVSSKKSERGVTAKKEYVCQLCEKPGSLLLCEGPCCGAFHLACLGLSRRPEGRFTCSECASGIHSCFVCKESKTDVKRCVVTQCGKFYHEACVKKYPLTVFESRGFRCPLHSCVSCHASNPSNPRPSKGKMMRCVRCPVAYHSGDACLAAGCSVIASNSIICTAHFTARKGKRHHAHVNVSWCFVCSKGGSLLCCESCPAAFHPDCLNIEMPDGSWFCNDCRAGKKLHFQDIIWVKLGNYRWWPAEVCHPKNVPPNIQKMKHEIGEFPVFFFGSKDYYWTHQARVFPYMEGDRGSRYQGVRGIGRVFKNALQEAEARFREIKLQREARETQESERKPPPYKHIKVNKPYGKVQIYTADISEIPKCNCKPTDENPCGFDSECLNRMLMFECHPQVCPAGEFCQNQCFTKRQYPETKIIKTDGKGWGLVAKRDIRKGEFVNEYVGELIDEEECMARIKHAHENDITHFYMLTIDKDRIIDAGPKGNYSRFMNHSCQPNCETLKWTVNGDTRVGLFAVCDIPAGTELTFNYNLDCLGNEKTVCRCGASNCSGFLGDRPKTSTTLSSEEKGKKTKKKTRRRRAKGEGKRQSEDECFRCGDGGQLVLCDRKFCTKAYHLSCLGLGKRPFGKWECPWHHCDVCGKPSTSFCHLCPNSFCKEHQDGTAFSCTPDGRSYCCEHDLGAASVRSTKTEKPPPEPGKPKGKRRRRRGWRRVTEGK
Type of assay: biochemical.

A further assay concerns Vero. Nature of the assay: Vero cell cytotoxicity, cytotoxicity control for flavivirus capping enzyme inhibitors (AID 588742). Particulars: Chlorocebus sabaeus. Type of assay: functional.
The next assay deals with Genome polyprotein (dengue virus type 2, UniProt P29990). Nature of the assay: Dengue-2 NS5 methyltransferase inhibitors, primary screen, biochemical, confirmation dose response (AID 588689). Type of assay: functional.

The source made the active and inactive calls.

T3 sequence (P08684 whole entry): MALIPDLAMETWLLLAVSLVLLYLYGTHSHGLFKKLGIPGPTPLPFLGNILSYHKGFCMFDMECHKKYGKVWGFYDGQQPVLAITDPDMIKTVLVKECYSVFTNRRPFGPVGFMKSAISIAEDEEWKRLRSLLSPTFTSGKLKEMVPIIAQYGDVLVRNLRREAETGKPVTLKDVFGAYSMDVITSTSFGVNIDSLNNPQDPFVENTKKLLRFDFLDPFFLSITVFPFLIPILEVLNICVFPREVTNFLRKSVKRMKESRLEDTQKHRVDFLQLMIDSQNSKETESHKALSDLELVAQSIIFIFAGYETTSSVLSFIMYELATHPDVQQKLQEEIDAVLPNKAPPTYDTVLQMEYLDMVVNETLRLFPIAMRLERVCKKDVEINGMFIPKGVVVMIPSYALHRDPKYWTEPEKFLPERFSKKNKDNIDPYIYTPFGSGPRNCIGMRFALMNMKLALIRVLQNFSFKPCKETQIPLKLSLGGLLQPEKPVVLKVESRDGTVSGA
Sequence of Induced myeloid leukemia cell differentiation protein Mcl-1 (Q07820 whole entry): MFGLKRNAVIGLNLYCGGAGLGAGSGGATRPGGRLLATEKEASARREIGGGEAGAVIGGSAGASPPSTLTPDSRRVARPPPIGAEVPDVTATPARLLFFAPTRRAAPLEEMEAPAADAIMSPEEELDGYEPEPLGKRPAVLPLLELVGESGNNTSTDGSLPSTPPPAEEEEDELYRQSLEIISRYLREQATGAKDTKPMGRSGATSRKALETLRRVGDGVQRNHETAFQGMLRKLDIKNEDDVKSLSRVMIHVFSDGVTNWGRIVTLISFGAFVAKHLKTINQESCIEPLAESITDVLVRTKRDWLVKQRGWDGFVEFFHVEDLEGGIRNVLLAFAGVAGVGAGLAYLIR
Sequence of FAD-linked sulfhydryl oxidase ALR (P55789 whole entry): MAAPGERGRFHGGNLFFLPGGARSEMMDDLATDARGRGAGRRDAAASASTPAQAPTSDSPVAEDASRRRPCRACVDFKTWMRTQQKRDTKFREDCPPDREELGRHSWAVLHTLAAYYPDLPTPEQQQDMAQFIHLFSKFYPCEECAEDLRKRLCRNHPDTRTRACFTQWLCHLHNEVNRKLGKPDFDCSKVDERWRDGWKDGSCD
Sequence of Estrogen receptor beta (Q92731 whole entry): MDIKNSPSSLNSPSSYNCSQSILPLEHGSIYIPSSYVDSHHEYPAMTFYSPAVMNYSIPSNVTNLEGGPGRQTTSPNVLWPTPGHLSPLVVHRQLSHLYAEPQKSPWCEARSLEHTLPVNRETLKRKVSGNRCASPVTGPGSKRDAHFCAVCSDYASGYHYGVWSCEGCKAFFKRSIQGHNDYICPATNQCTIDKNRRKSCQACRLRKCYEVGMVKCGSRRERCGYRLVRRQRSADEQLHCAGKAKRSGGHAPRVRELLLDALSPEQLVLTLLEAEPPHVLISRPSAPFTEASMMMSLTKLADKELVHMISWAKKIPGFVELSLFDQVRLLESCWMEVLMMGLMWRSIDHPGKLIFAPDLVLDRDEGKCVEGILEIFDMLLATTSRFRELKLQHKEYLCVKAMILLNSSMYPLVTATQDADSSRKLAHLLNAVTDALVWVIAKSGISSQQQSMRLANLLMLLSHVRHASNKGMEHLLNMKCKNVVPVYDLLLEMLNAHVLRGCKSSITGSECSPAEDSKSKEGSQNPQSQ
Sequence of Genome polyprotein (P29990 2492-3391 limits assumed): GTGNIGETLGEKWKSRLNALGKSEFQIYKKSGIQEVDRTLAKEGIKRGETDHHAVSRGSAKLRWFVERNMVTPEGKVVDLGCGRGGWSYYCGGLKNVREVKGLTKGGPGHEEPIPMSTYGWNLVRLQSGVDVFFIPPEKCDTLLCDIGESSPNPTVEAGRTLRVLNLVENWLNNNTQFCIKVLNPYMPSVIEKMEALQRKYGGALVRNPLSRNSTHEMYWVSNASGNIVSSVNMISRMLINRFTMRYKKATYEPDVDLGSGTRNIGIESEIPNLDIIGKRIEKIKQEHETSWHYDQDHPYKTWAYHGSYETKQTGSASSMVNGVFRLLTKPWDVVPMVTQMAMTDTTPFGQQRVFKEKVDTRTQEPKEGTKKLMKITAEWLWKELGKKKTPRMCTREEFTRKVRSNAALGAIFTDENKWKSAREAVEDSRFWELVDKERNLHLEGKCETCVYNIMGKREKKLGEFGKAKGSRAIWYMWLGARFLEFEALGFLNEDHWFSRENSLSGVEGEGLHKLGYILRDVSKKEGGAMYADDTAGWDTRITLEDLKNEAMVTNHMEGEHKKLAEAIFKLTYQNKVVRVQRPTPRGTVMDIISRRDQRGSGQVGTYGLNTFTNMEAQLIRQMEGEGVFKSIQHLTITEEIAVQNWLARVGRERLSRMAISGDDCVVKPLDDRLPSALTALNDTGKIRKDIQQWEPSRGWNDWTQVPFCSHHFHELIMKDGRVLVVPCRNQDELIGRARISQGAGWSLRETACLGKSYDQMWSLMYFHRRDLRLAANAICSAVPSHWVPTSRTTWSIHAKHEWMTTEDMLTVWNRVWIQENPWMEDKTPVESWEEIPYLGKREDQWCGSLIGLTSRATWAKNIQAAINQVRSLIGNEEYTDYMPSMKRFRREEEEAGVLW

As usually defined, the IC50 is the midpoint of a concentration-inhibition curve. In general, AC50 refers to the concentration at which the activity in the assay is half-maximal. Consider `COC(=O)c1ccccc1-c1ccc(/C=C2\C(=O)N(c3ccccc3)N=C2c2ccccc2)o1`, for which the concentration for half-maximal inhibition (IC50) in [1] is 28.9 µM (active). Moreover, the AC50 is 5.01 µM (inconclusive) at Cytochrome P450 1A2 and 2.82 µM (inconclusive) on Cytochrome P450 3A4 [2].

In the case of `CC(=O)Nc1ccc(N2CCN(C(C)=O)CC2)cc1`, the IC50 against Estrogen receptor beta is reported as > 50 µM (not active).

In general, EC50 refers to the concentration at which the effect is half-maximal. Take `Cc1ccc2nc(-c3ccc(NC(=O)CN4CCN(c5ccccn5)CC4)cc3)sc2c1`: the figures for the EC50 (in assay [3]; in the assay with H4) were 9.19 µM (active) and 44.3 µM (active), respectively.

Consider `Brc1ccc(C2Nc3cccc4cccc(c34)N2)s1`, for which, in assay [4], the IC50 is 9.46 µM (active).

For `Nc1nc(CSc2ncccn2)nc(Nc2ccccc2)n1`, the 50% effective concentration (EC50) in [5] is 3.07 µM (active); in [3], 0.504 µM (active).

As for `COC(=O)c1ccc(CC(=O)c2c(C)cc(O)cc2O)o1`, the IC50 at Estrogen receptor beta is 15 µM (active).

Turning to `CCCCCc1ccc(OCCC[n+]2ccccc2)c(CCCCC)c1`, the EC50 in assay [6] is 0.122 µM (active); in [7], > 60 µM (not active). Besides, the IC50 in assay [1] is 84.9 µM (active).

With `Oc1cc(Cl)c(Cl)c(Cl)c1Cl`, the half-maximal activity concentration (AC50) in [8] is 2.06 µM (active); on Cytochrome P450 3A4 [9] it was 12.6 µM (inconclusive).

Turning to `CC(=O)Oc1ccc2occ(-c3ccccc3)c2c1`, the EC50 was 13.8 µM (active) in assay [5], 16.7 µM (active) in [3] and 14 µM (active) in the assay with H4.

Regarding `O=C(COc1ccccc1Cl)c1ccc2c(c1)CCCC2`, the concentration giving a half-maximal response (EC50) in assay [3] is 16.7 µM (active); in the assay with H4, 10 µM (active).

`CCOC(=O)C(=O)N(Nc1ccc(C)cc1)c1ccc(C)cc1`: the EC50 in assay [5] is 7.04 µM (active); in assay [3], 82.6 µM (active).

In the case of `COc1ccc(S(=O)(=O)N2CCN(CC(=O)c3ccc(O)c(O)c3)CC2)cc1`, the values for the AC50 in assay [10] and in assay [11] were 2.33 µM (active) and 5.33 µM (active), respectively.

For orientation: CC50 means the concentration at which the toxic effect on the cells reaches its halfway point. For the molecule `O=C1C(O)=CC(=C(c2ccccc2)c2ccccc2)c2ccccc21`, in the assay with Vero, the CC50 is > 40 µM (active). Also, the IC50 at Genome polyprotein was > 100 µM (active).

On to `COc1cc(/C=N/NC(=O)c2cc(-c3ccco3)nc3ccccc23)cc(OC)c1O`, for which the 50% inhibitory concentration (IC50) in [4] is 8.35 µM (active). Also, the concentration at half-maximal activity (AC50) in assay [10] was 0.13 µM (active).

Turning to `COc1cc(O)cc(OC)c1OC` [ANTIAROL], at Cytochrome P450 3A4 [9], the concentration at half-maximal activity (AC50) was 31.6 µM (inconclusive).

For the molecule `CCCc1cc(=O)oc2c3c(c4c(c12)OC(C)(C)C=C4)O[C@H](C)[C@@H](C)[C@@H]3O` [CALANOLIDE A], the EC50 in [6] was 2.28 µM (active); in assay [7], 4.87 µM (active). Also, the IC50 in assay [1] is 20.3 µM (active).

Regarding `O=C(CC(=O)c1ccccc1)c1ccccc1` [DIBENZOYLMETHANE], the AC50 on Cytochrome P450 3A4 [9] is 12.6 µM (inconclusive).
